The results in this text go back to ChEMBL document CHEMBL4052581, “Expanding the Cancer Arsenal with Targeted Therapies: Disarmament of the Antiapoptotic Bcl-2 Proteins by Small Molecules” (J Med Chem, 2017).

Experiment [1] concerns the target T1, Induced myeloid leukemia cell differentiation protein Mcl-1 (Homo sapiens, UniProt Q07820). Description: Inhibition of FITC-labeled Bim BH3 binding to GST-tagged Mcl-1 (unknown origin) preincubated for 2 mins followed by FITC-Bim-BH3 addition measured after 10 mins by fluorescence polarization assay. A general note: In fluorescence polarisation assays a small probe gives low polarisation when free and higher when bound to something large.

For experiment [2], the target named is T2, Bcl-2-like protein 1 (Homo sapiens, UniProt Q07817). Put plainly: Inhibition of FITC-labeled Bak-BH3 peptide binding to Bcl-xL (unknown origin) by fluorescence polarization assay.
The target of experiment [3] is T1, Induced myeloid leukemia cell differentiation protein Mcl-1. Description: Inhibition of FITC-labeled Bak-BH3 peptide binding to Mcl-1 (unknown origin) by fluorescence polarization assay.
Experiment [4] has the same target. Put plainly: Binding affinity to Mcl-1 (unknown origin) by TR-FRET assay. Background: TR-FRET usually uses a lanthanide donor and a delayed reading to cut background.
A further experiment concerns the target T3, Bcl-2-related protein A1 (Homo sapiens, UniProt Q16548).
T3 sequence (Q16548 whole entry): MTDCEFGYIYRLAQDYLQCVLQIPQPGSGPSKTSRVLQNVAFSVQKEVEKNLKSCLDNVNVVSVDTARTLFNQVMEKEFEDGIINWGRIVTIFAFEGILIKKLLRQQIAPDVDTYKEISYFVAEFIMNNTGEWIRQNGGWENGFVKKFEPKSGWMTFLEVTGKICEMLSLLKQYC
Put plainly: Binding affinity to Bcl2A1 (unknown origin).

The target in experiment [5] is T2, Bcl-2-like protein 1. Description: Inhibition of Bak BH3 peptide binding to GST-tagged human Bcl-xL after 3 hrs by Western blotting-based GST pull-down assay. On the technique in general: Immunoblotting shows a protein as a band on a membrane.
Experiment [6] addresses T1, Induced myeloid leukemia cell differentiation protein Mcl-1. Put plainly: Inhibition of Bim BH3 peptide binding to GST-tagged human Mcl-1 after 3 hrs by Western blotting-based GST pull-down assay.
Experiment [7] can be described thus: Selectivity ratio of IC50 for human Bcl-2 to IC50 for mouse Mcl-1.
The target in experiment [8] is T1, Induced myeloid leukemia cell differentiation protein Mcl-1. Put plainly: Inhibition of FITC-BID BH3 peptide binding to recombinant GST-tagged N-terminal/C-terminal truncated Mcl-1 (unknown origin) expressed in Escherichia coli BL21 (DE3) after 5 mins by fluorescence polarization assay.
For experiment [9], the target named is T2, Bcl-2-like protein 1. Put plainly: Inhibition of FITC-BID BH3 peptide binding to recombinant GST-tagged C-terminal truncated Bcl-xL (unknown origin) expressed in Escherichia coli BL21 (DE3) after 5 mins by fluorescence polarization assay.
For experiment [10], the target named is T4, Apoptosis regulator Bcl-2 (Homo sapiens, UniProt P10415). Put plainly: Inhibition of Bcl-2 (unknown origin) by fluorescence polarization assay.
The target in experiment [11] is T2, Bcl-2-like protein 1. Put plainly: Inhibition of Bcl-xL (unknown origin) by fluorescence polarization assay.
The species entered for experiment [12] is Homo sapiens. Put plainly: Selectivity ratio of compound effect for Bcl-2 (unknown origin) to compound effect for Mcl-1 (unknown origin).
Experiment [13] is filed under the species Homo sapiens. Put plainly: Selectivity ratio of compound effect for Bcl-xL (unknown origin) to compound effect for Mcl-1 (unknown origin).
Experiment [14] concerns the target T4, Apoptosis regulator Bcl-2. Description: Inhibition of FAM-Bid binding to Bcl-2 (unknown origin) after 30 mins by fluorescence polarization assay.
Experiment [15] has as its target T1, Induced myeloid leukemia cell differentiation protein Mcl-1. Put plainly: Inhibition of FAM-Bid binding to Mcl-1 (unknown origin) after 30 mins by fluorescence polarization assay.

Usually IC50 stands for the concentration that inhibits the measured activity by half. The term Ki denotes a measure of affinity in units of concentration, obtained from inhibition or displacement. Broadly, the Kd is the free concentration of one partner at which half of the binding sites on the other are occupied at equilibrium, for simple one-to-one binding. High values mean a looser complex, low ones a tighter complex.

T2 sequence (Q07817 whole entry): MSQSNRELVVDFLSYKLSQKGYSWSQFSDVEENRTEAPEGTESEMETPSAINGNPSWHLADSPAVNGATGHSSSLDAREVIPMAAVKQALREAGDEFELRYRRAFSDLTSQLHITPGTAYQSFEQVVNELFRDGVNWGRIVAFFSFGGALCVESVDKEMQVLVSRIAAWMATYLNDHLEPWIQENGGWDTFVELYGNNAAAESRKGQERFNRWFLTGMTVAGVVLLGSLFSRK
T1 sequence (Q07820 whole entry): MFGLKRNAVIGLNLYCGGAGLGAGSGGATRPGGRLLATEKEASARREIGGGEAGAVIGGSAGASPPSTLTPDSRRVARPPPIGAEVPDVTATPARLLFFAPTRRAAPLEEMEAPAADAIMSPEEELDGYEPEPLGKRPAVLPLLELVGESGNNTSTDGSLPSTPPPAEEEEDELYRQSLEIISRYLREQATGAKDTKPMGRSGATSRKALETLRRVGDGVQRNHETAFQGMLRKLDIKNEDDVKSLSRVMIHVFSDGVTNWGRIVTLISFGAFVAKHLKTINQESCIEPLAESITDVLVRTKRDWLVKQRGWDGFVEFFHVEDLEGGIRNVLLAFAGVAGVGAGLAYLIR
T4 sequence (P10415 whole entry): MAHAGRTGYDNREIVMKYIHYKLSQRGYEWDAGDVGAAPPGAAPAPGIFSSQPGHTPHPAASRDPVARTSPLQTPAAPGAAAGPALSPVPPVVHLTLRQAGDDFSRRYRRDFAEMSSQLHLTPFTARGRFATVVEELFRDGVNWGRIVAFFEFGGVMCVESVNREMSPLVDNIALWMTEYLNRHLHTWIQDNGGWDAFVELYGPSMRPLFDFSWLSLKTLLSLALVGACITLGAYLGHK

`CC1=C(C2=C(C)C(=O)c3c(cc(O)c(O)c3Cc3ccccc3)C2=O)C(=O)c2cc(O)c(O)c(Cc3ccccc3)c2C1=O`: in experiment [1], the half-maximal inhibitory concentration (IC50) turned out to be 25 nM.

As to `CC(C)Oc1cc(C(=O)Nc2ccc(C(=O)Nc3ccc(C(=O)O)cc3OC(C)C)nc2OC(C)C)ccc1N`, the IC50 at Bcl-2-like protein 1 [2] was 394 nM; in experiment [3], 10000 nM. On to `CC1(C)CCC(CN2CCN(c3ccc(C(=O)NS(=O)(=O)c4ccc(NCC5CCOCC5)c([N+](=O)[O-])c4)c(Oc4cnc5[nH]ccc5c4)c3)CC2)=C(c2ccc(Cl)cc2)C1` [VENETOCLAX], for which the Ki in [4] was over 444 nM.

At Bcl-2-related protein A1, `CN(C)CC[C@H](CSc1ccccc1)Nc1ccc(S(=O)(=O)NC(=O)c2ccc(N3CCN(Cc4ccccc4-c4ccc(Cl)cc4)CC3)cc2)cc1[N+](=O)[O-]` [ABT 737] displayed a Ki of over 20000 nM. For the compound `CC(C)Cc1cc(-c2ccc(-c3ccc(CCC(=O)O)cc3CC(C)C)cc2Cc2ccccc2)ccc1OCC(=O)O`, the IC50 was 1500 nM on Bcl-2-like protein 1 [5] and 4900 nM in experiment [6].

For `O=C(c1ccccc1O)c1[nH]c(Cl)c(Cl)c1-n1c(C(=O)c2ccccc2O)cc(Cl)c1Cl`, the Ratio IC50 in experiment [7] is over 8. As for `Cc1cs/c(=N\C2CCCCC2)n1/N=C/c1cc(O)c(O)c(O)c1`, the IC50 in experiment [8] was 4800 nM; at Bcl-2-like protein 1 [9], over 50000 nM.

As to `Cc1c(S(C)(=O)=O)c(-c2cc(F)cc(N3CCN(c4ccc(NS(=O)(=O)c5ccc(N[C@H](CCN6CCC(O)CC6)CSc6ccccc6)c(S(=O)(=O)C(F)(F)F)c5)cc4)CC3)c2)c(-c2ccc(Cl)cc2)n1C(C)C`, the Ki (in experiment [10]; at Bcl-2-like protein 1 [11]) was under 1 nM throughout. Besides, the Selectivity ratio in the experiment filed under Homo sapiens [12] and in the experiment listed under Homo sapiens [13] was over 1000 in each case. As for `N#CC1=C2C(=NC1=O)c1cccc3c(N4CCSCC4)ccc2c13`, the Kd is 310 nM in experiment [14] and 58 nM in [15].
